These results are taken from patent publication EP2433636A1, “Treatment of Malignant Diseases” (Medizinische Universität Wien, priority 2010, dated 2012).

Entries after “also recorded” stand apart in the source; their conditions may differ.

Data set [1] concerns phospho-Pak1 (pS144)/Pak2 (pS141). The experiment in a line: Western blot, phospho-Pak1/2. Type of data set: cell-based, Human. The conditions noted are these: 2 µM for 24h, compared to controls. The method, then: (§1) Cell lysates were prepared (Aharinejad et al., Cancer Res. 62 (2002), 5317-5324 and Cancer Res. 64 (2004), 5378-5384) and 50 µg/lane separated by 9% SDS-PAGE prior to electrophoretic transfer onto Hybond C super (Amersham Pharmacia Biotech, Buckinghamshire, UK). The blots were probed with antibodies against PAK1 and phospho-Pak1 (pS144)/Pak2 (pS141) (Cell Signaling Technology, Danvers, MA) before incubation with horseradish peroxidase-conjugated secondary antibodies (Amersham Pharmacia Biotech). Proteins were immunodetected by chemiluminescence (Supersignal-West- Femto, Pierce, Rockford, IL) and quantified by Image Quant 5.0 software (Molecular Dynamics, Sunnyvale, CA).

The test system of data set [2] is CRL-2505 cells. The data set is described as follows: Cell cycle distribution by flow cytometry (propidium iodide). In kind it is cell-based, Human. The settings on record: 24 h; for sub G1 events (M1): untreated 1.47%. On the procedure: (§2) One portion of the cells were then fixed with 70% ethanol for 1h at 4°C, washed with PBS and stained with propidium iodide (PI) puffer with 50 µg/ml DNase-free RNaseA. Cells in different cell cycle stages were determined. The rest of the cells were fixed with Cytofix fixation buffer (BD) for 30 min at 37°C, washed and then permeabilized with Perm buffer III (BD) and stained with Cyclin D1 (anti-human Cyclin D1 antibody set), phospho-Akt (anti-phospho-Akt pT308), phospho-ERK (anti-phospho-ERK1/2 pT202/pY204), phospho-JNK (anti-phospho-JNK pT183/pY185) and phospho-p38 antibodies (anti-phospho-p38 MAPK pT180/pY182) (the latter antibodies were purchased from BD Biosciences). […] were analyzed on a FACScan flow cytometer (BD Biosciences) with an argon laser tuned to 488 nm.
On the technique in general: In flow cytometry, cells or beads pass a laser one at a time.

The test system of data set [3] is CRL-2505 prostate cancer xenograft. The data set is described as follows: Survival study in prostate cancer xenograft bearing mice. In kind it is in vivo, athymic nu/nu (nude) mice. The method, then: (§3) The experiments performed in this study were approved by the Institutional Animal Care and Use Committee at the Vienna Medical University. Pathogen-free, male, 5 week-old athymic nu/nu (nude) mice (Charles River, Sulzfeld, Germany) were weighed, coded and divided into experimental groups of (n = 10) at random. Mice were anesthetized (ketamine hydrochloride/xylazine at 55/7.5 mg/kg i.p.) and 15x10^6 CRL-2505 cells/100 µl PBS were injected s.c. into the left flank (Aharinejad et al., 2004). In a preliminary experiment mice received i.p. injections with 100 µg compound AZA1, AZA2, AZA3, or AZA4 in 100 µl 30% DMSO six days after cell injection for two weeks, control animals received 100 µl 30% DMSO/day (n = 5 for each group). In the main experiment, mice received i.p. injections with 100 µg compound AZA1 in 100 µl 30% DMSO six days after cell injection for two weeks, control animals received 100 µl 30% DMSO/day (n = 10 for each group). Tumour volumes were calculated as length x width^2/2. All animals were sacrificed on day 20.
The survival study was set for three months. Mice were treated with compound AZA1 (n = 10) or 30% DMSO (n = 10) and were euthanized when moribund.
Data were tested for normality using the Shapiro-Wilk test. Groups were compared by nonparametric analysis of variance (ANO-VA, Wilcoxon rank-sum test, Kruskal-Wallis test). All statistical tests were two-sided. The overall survival curves after treatment were analyzed by the Kaplan-Meier survival test. Statistical tests were performed with the use of SAS software (version 9.1.3) and Enterprise Guide (version 4.1, SAS Institute Inc., Cary, NC). Data are expressed as means ± SD. P values of < 0.05 were considered to indicate statistical significance.

Data set [4] is described as follows: Solubility test in 20-30% DMSO in water. Type of data set: physicochemical. The conditions noted are these: appropriate if 1mM of the compound is soluble in 20-30% DMSO in water; 100 mM stock in 100% DMSO. The method, then:
Compounds in powder form were dissolved in 100% DMSO to obtain 100 mM stock solutions of each of the compounds. Solubility of the compounds was then tested by preparing solutions in 20-30% DMSO in water. […] Compounds which were non-soluble in 30% DMSO were regarded as non-soluble. NSC23766 was always used as a reference compound.

The next data set has as its system Pak1. The data set is described as follows: Western blot, Pak1 total protein. In kind it is cell-based, Human. The conditions noted are these: 2 µM for 24h, compared to controls. The method, then:
as §1

The subject of the next data set is phospho-p38. The experiment in a line: Phospho-p38 by flow cytometry. Type of data set: cell-based, Human. The settings on record: compared to untreated cells. On the procedure: (§4) Tumour cells were seeded in 10 cm plates and allowed to adhere before treatment with 20 µM compound AZA1 for 4 h before trypsinization and washing with PBS.
as §2

Data set [5] concerns CRL-2505 cells. The data set is described as follows: Apoptosis by flow cytometry (Annexin V-FITC and PI). Type of data set: cell-based, Human. The settings on record: 3 h after treatment. The source says: Then the effect of Rac1 inhibition on the cell cycle regulatory protein Cyclin D1 was examined. […] Next, flow cytometry was used to assess apoptosis in response to Rac1 inhibition.

The subject of data set [6] is CRL-2505 prostate cancer cells. The data set is described as follows: WST-1 cell proliferation assay. The settings on record: 72 hours of incubation with 1, 2, 5, 10 and 25 µM, compared to untreated cells. In kind it is cell-based, Human. The method, then:
Human CRL-2505 cells were seeded in 96-well plates at a density of 1x10^4 cells/well in culture medium. Cells were incubated with 1, 2, 5, 10, 25 µM compound AZA1. Cell proliferation was determined 24, 48 or 72 h after treatment using the WST-1 reagent (Roche Diagnostics, Indianapolis, IN) according to the manufacturer's protocol (Zins et al., Cancer Res. 67 (2007), 1038-1045). Each experiment was repeated three times.
A general note: Formazan colour is commonly taken as a measure of viable cells.

The test system of a further data set is Cyclin D1. The experiment in a line: Cyclin D1 expression by flow cytometry. In kind it is cell-based. The conditions noted are these: Homo sapiens, 4 h; compared to untreated controls; read-out: Cyclin D1 fluorescence intensity, decrease. The method, then: as §4, §2
In another data set the test system is phospho-Akt. The data set is described as follows: Phospho-Akt by flow cytometry. In kind it is cell-based, Human. On the procedure: as §2
For data set [7], the system named is CRL-2505 prostate cancer xenograft. The experiment in a line: Human prostate cancer xenograft tumour model. In kind it is in vivo, athymic nu/nu (nude) mice. On the procedure: as §3, with “In the main experiment, mice received i.p. injections with 100 µg compound AZA1 in 100 µl 30% DMSO six days after cell injection for two weeks, control animals received 100 µl 30% DMSO/day (n = 10 for each group).” left out, “All animals were sacrificed on day 20.” left out
On day 24, tumors were isolated, weighed and the animals were sacrificed. […] Primary antibodies were detected by sequential incubation with appropriate biotinylated secondary antibodies (Vector Laboratories, Burlingame, CA) and peroxidase conjugated streptavidin (Dako), developed with 3, 3'-diaminobenzidine (Vector Laboratories), counter-stained with haemalaun, dehydrated and mounted in DPX (Merck, Darmstadt, Germany) and digitalized images were generated.
(In general: A xenograft is tissue or cells of one species grown in another, often human tumour cells in immunodeficient mice.)

For another data set, the system named is Prostate cancer cells. The experiment in a line: In vitro migration assay (Boyden chamber). Type of data set: cell-based, Human. The conditions noted are these: compared to untreated controls. The method, then: Prostate cancer cells (5x10^4 in 1 ml DMEM with 10% FCS) were added to the top of each Boyden migration chamber (8-µm, 12-well plate format; BD Biosciences, Palo Alto, CA). Cells were incubated with 1, 2, and 5 µM of compound AZA1. […] Cells from the upper side of the membrane were removed with cotton swabs. The membranes were excised using a scalpel, inverted and transferred to a PBS filled tissue culture well. Membranes were then fixed in methanol for 2 min at -20°C. After washing in PBS, membranes were stained with 1 µg/ml 4'-6-Diamidino-2-phenylindole (DAPI) in PBS for 10 min at RT and washed again in PBS. Membranes were then embedded in Cityfluor (Cityfluor, Leicester, UK) on glass slides under coverslips. Representative sectors of migrated prostate cancer cells were counted under a fluorescence microscope. Each experiment was performed in triplicate.

A further data set deals with Rac 1, 2, 3. The experiment in a line: Rac 1, 2, 3 activation assay (G-LISA) after EGF stimulation. In kind it is cell-based, Human. On the procedure:
Prostate cancer cells were seeded in 6-well plates and starved for 20 h. Cells were incubated with Rac1 small molecule inhibitor AZA1 for 4 h and then stimulated with 50 ng/ml epidermal growth factor (EGF) (R&D systems) for 1 min 30 sec and Rac activation was then measured with the G-LISA method (Rac 1, 2, 3 activation assay, colorimetric format, Cytoskeleton) according to the manufacturer's protocol.

The next data set has as its system phospho-ERK. The data set is described as follows: Phospho-ERK by flow cytometry. In kind it is cell-based, Human. The conditions noted are these: compared to untreated cells. The method, then: as §4, §2
In a further data set the test system is phospho-JNK. The experiment in a line: Phospho-JNK by flow cytometry. In kind it is cell-based, Human. The conditions noted are these: compared to untreated cells. The method, then:
as §4, §2

The next data set relates to PC-3. The conditions noted are these: Rac-hyperactive prostate cancer cells PC-3; cited from earlier work.
The test system of data set [8] is chronic myelogenous leukemia (CML). The conditions noted are these: in vitro and in vivo; cited from earlier work.

For the compound `Cc1cc2cc(Nc3ccnc(Nc4ccc5[nH]c(C)cc5c4)n3)ccc2[nH]1` [AZA1, N*2*,N*4*-Bis-(2-methyl-1H-indol-5-yl)-pyrimidine-2,4-diamine], the “Pak1/2 phosphorylation at serine 144/141” value in data set [1] was “significantly reduced”. Further, the results for the “sub G1 events (M1)” value in the data set on CRL-2505 cells [2] (1 µM) and with CRL-2505 cells [2] (2 µM) were 8.08% and 9.26%, respectively. In the data set with CRL-2505 cells [2] (2 µM, untreated 32.25%), the “G2/M (M4) phases” value worked out at 28.44%. In data set [3] (after tumour cell grafting, control 39 ± 15 days), the “median time to death” value came to 46 ± 4 days. For the same compound, the animals still alive in [3] (day 42, when the last control animal died) was found to be 60%. Further, the survival entry in data set [3] (vs. control mice, Kaplan-Meier) is reported as “significantly increased”. Besides, the solubility result in data set [4] is given as “appropriate solubility”. Moreover, the Pak1 expression result in the data set on Pak1 was “not changed”. In the data set with phospho-p38, the “phosphorylation of p38” value is “significant decrease”. Besides, the “apoptosis (staining with Annexin V-FITC and PI)” value in the data set with CRL-2505 cells [5] was “no significant signs of apoptosis”. In addition, the CRL-2505 cell proliferation entry in [6] is listed as “significantly reduced”. Further, the inhibition at 20 µM turned out to be 22% with Cyclin D1 and 24% in the data set with phospho-Akt (Homo sapiens, 1 h, 20 µM for 60 min (Fig. 4A), compared to untreated cells, read-out: phospho-Akt levels, reduction). The “pAkt at different time points” value in the data set on phospho-Akt (5 min to 90 min after treatment) is reported as “decreased significantly”. In addition, the “ranking of AZA1 to AZA4 in the in vivo experiments (solubility, lack of toxicity, tumor-suppressive effects)” value in data set [7] (preliminary experiment, 100 µg i.p. in 30% DMSO, n = 5 per group) was “most potent agent”. In data set [7] (tumour tissue sections, day 24), the “cell proliferation, staining with Ki-67 antibody” value is “reduced”. Also, the cancer cell migration result with Prostate cancer cells (1 µM) was “failed to reduce cancer cell migration”; in the data set with Prostate cancer cells (2 µM, 20 h), “significantly reduced migration”; with Prostate cancer cells (5 µM, 20 h) it was “significantly reduced migration”. Also, the Rac activity result in the data set with Rac 1, 2, 3 (CRL-2505 cells, 5, 10 and 20 µM, 4 h incubation, then 50 ng/ml EGF) is listed as “reduced Rac activity significantly”. The “Rac inhibiting activity, compared with the other screened compounds or NSC23766” value in the data set on Rac 1, 2, 3 (screening of the newly designed compounds, CRL-2505 cells after EGF treatment) was “improved Rac inhibiting activity when compared to NSC 23766; also recorded: most effective Rac inhibitor”. In addition, in the data set on phospho-ERK, the “activity of ERK (phospho-ERK)” value is listed as “not affected”. Moreover, the “phosphorylation of JNK” value in the data set on phospho-JNK is “significant decrease”.
With `CCN(CC)CCCC(C)Nc1ncc(C)c(Nc2ccc3[nH]c(C)cc3c2)n1` (stereo not shown) [Compound 10, N*2*-(4-Diethylamino-1-methyl-butyl)-5-methyl-N*4*-(2-methyl-1H-indol-5-yl)-pyrimidine-2,4-diamine], the solubility entry in [4] is reported as “appropriate solubility”.
The same measure, in the same setting: to `c1cc(Nc2ccc3[nH]ccc3c2)nc(Nc2ccc3[nH]ccc3c2)n1` [Compound 41, N*2*,N*4*-Bis-(1H-indol-5-yl)-pyrimidine-2,4-diamine] belongs “appropriate solubility”.
For `c1cc(NCc2ccc3[nH]ccc3c2)nc(Nc2ccc3cc[nH]c3c2)n1` [Compound 55, N*2*-(1H-Indol-6-yl)-N*4*-(1H-indol-5-ylmethyl)-pyrimidine-2,4-diamine], the solubility entry in data set [4] was “appropriate solubility”.
Take `CCN(CC)CCCC(C)Nc1nc(C)cc(Nc2ccc3nc(C)cc(N)c3c2)n1` (stereo not shown) [NSC23766, N6-(2-((4-(diethylamino)-1-methylbutyl)amino)-6-methyl-4-pyrimidinyl)-2-methyl-4,6-quinolinediamine]: in the data set with PC-3, the anchorage independent growth entry was “able to inhibit”, the invasion entry was “able to inhibit” and the proliferation result was “able to inhibit”. For the same compound, the “proliferation of chronic myelogenous leukemia (CML)” value in data set [8] is “inhibited proliferation”.
